Earlier results as cited in paper PMC7395068, “The evolution of strategies to minimise the risk of human drug-induced liver injury (DILI) in drug discovery and development” (Archives of Toxicology, 2020).
Counter-ions that a name gives are not always drawn. Like-named read-outs stand apart in the source and are kept apart here.

Assays:
human hepatocytes = settings: cited from earlier work
[1] = cited from earlier work
[2] = human hepatocyte imaging, ref Xu 2008
[3] = assignment in Xu 2008, ref Xu 2008

C[C@H]1C[C@H]2[C@@H]3CCC4=CC(=O)C=C[C@]4(C)[C@@]3(Cl)[C@@H](O)C[C@]2(C)[C@@]1(O)C(=O)CO [beclomethasone]
Structural based (HCI) (human hepatocytes): -VE
In vivo DILI ([1]; in vivo): -VE

COc1ccc(C[C@H](N)C(=O)N[C@H]2[C@@H](O)[C@H](n3cnc4c(N(C)C)ncnc43)O[C@@H]2CO)cc1 [puromycin]
Structural based (HCI), In vitro Assay (human hepatocytes; [2]): +VE
In vivo DILI [1, 3]: +VE

CCCCNc1ccc(C(=O)OCCN(C)C)cc1 [tetracaine]
Structural based (HCI), In vitro Assay (human hepatocytes; [2]): -VE
In vivo DILI [1, 3]: -VE

CC(C)(C)NC[C@H](O)COc1nsnc1N1CCOCC1 [timolol maleate]
Structural based (HCI), In vitro Assay (human hepatocytes; [2]): -VE
In vivo DILI [1, 3]: +VE

C=C1[C@@H]2CC[C@H]3[C@]4(C)C[C@H](O[C@@H]5O[C@H](CO)[C@@H](OS(=O)(=O)O)[C@H](OS(=O)(=O)O)[C@H]5OC(=O)CC(C)C)C[C@@H](C(=O)O)[C@H]4CC[C@]3(C2)[C@H]1O [atractyloside]
Structural based (HCI) (human hepatocytes; In vitro Assay, ref Xu 2008): +VE
In vivo DILI ([1]; ref Xu 2008): +VE

COC(=O)Nc1nc2ccccc2[nH]1 [carbendazim]
Structural based (HCI) (human hepatocytes): -VE
In vivo DILI ([1]; in vivo): +VE

CC(=O)O[C@]1(C(C)=O)CC[C@H]2[C@@H]3C[C@H](C)C4=CC(=O)CC[C@]4(C)[C@H]3CC[C@@]21C [medroxyprogesterone acetate]
Structural based (HCI), In vitro Assay (human hepatocytes; [2]): -VE
In vivo DILI [1, 3]: -VE

O.O=C1NC(=O)C(=O)C(=O)N1 [alloxan hydrate]
Structural based (HCI) (human hepatocytes; In vitro Assay, ref Xu 2008): -VE
In vivo DILI ([1]; ref O'Brien 2006): +VE
In vivo DILI ([1]; ref Xu 2008): -VE

COc1c(N2CCNC(C)C2)c(F)cc2c(=O)c(C(=O)O)cn(C3CC3)c12 (stereo not shown) [gatifloxacin]
Structural based (HCI), In vitro Assay (human hepatocytes; [2]): -VE
In vivo DILI [1, 3]: -VE

CC(C)N(CCC(C(N)=O)(c1ccccc1)c1ccccn1)C(C)C (stereo not shown) [disopyramide phosphate]
Structural based (HCI) (human hepatocytes; In vitro Assay, ref Xu 2008): -VE
In vivo DILI ([1]; ref Xu 2008): +VE

O.O=[N+]([O-])[O][Ga]([O][N+](=O)[O-])[O][N+](=O)[O-] [gallium nitrate hydrate]
Structural based (HCI), In vitro Assay (human hepatocytes; [2]): -VE
In vivo DILI [1, 3]: -VE

CC1(C)[C@@H](OC(=O)CCC(=O)[O-])CC[C@]2(C)[C@H]3C(=O)C=C4[C@@H]5C[C@@](C)(C(=O)[O-])CC[C@]5(C)CC[C@@]4(C)[C@]3(C)CC[C@@H]12.[Na+].[Na+] [carbenoxolone disodium]
Structural based (HCI) (human hepatocytes): -VE
In vivo DILI ([1]; in vivo): -VE

OCCN1CCN(CC/C=C2/c3ccccc3Sc3ccc(C(F)(F)F)cc32)CC1 [cis(z)-flupentixol]
Structural based (HCI) (human hepatocytes): -VE
In vivo DILI ([1]; in vivo): -VE

N[C@H](C(=O)O)[C@@H]1CC(Cl)=NO1 [acivicin]
Structural based (HCI) (human hepatocytes; In vitro Assay, ref Xu 2008): -VE
In vivo DILI ([1]; ref Xu 2008): -VE

CS(=O)(=O)OCCCCOS(C)(=O)=O [busulphan]
Structural based (HCI) (human hepatocytes; In vitro Assay, ref Xu 2008): +VE
In vivo DILI ([1]; ref Xu 2008): +VE

CN(C)CCCN1c2ccccc2Sc2ccccc21 [promazine]
Structural based (HCI), In vitro Assay (human hepatocytes; [2]): -VE
In vivo DILI [1, 3]: -VE

CN1CCN(CC/C=C2/c3ccccc3Sc3ccc(S(=O)(=O)N(C)C)cc32)CC1 [thiothixene]
Structural based (HCI) (human hepatocytes; In vitro Assay, ref Xu 2008): -VE

[Cl][Cd][Cl] [cadmium chloride]
Structural based (HCI) (human hepatocytes; In vitro Assay, ref Xu 2008): +VE
In vivo DILI ([1]; ref Xu 2008): +VE

O=C(O)/C=C\C(=O)O [maleic acid]
Structural based (HCI) (human hepatocytes; In vitro Assay, ref Xu 2008): -VE

C#C[C@]1(OC(C)=O)CC[C@H]2[C@@H]3CCC4=C[C@@H](OC(C)=O)CC[C@@H]4[C@H]3CC[C@@]21C [ethynodiol diacetate]
Structural based (HCI) (human hepatocytes; In vitro Assay, ref Xu 2008): -VE

O=c1[nH]cnc2c1ncn2[C@H]1CC[C@@H](CO)O1 [didanosine]
Structural based (HCI) (human hepatocytes; In vitro Assay, ref Xu 2008): -VE

C[C@H]1C(=O)O[C@@H]2CCN3CC=C(COC(=O)[C@](C)(O)[C@]1(C)O)[C@H]23 [monocrotaline]
Structural based (HCI), In vitro Assay (human hepatocytes): -VE
In vivo DILI ([1]; in vivo): +VE

CCSCC[C@H](N)C(=O)O [l-ethionine]
Structural based (HCI), In vitro Assay (human hepatocytes; [2]): -VE
In vivo DILI [1, 3]: +VE

CC1=C(/C=C/C(C)=C/C=C/C(C)=C/C(=O)O)C(C)(C)CCC1 [retinoic acid]
Structural based (HCI) (human hepatocytes; In vitro Assay, ref Xu 2008): +VE
In vivo DILI ([1]; […]): +VE
In vivo DILI ([1]; ref Xu 2008): +VE

CC(=O)c1ccc(S(=O)(=O)NC(=O)NC2CCCCC2)cc1 [acetohexamide]
Structural based (HCI) (human hepatocytes; In vitro Assay, ref Xu 2008): +VE
In vivo DILI ([1]; ref Xu 2008): +VE

CC(C(=O)O)c1cccc(Oc2ccccc2)c1 (stereo not shown) [fenoprofen sodium]
Structural based (HCI) (human hepatocytes; In vitro Assay, ref Xu 2008): +VE
In vivo DILI ([1]; ref Xu 2008): +VE

C=C1CC[C@@]2(O)[C@H]3Cc4ccc(O)c5c4[C@@]2(CCN3CC2CC2)[C@H]1O5 [nalmefene]
Structural based (HCI), In vitro Assay (human hepatocytes; [2]): -VE
In vivo DILI [1, 3]: -VE

N=C(N)NCCC[C@H](N)C(=O)O [l-arginine]
Structural based (HCI) (human hepatocytes; In vitro Assay, ref Xu 2008): -VE

Cl[C@H]1[C@H](Cl)[C@@H](Cl)[C@@H](Cl)[C@H](Cl)[C@H]1Cl [1,2,3,4,5,6-hexachlorocyclohexane]
Structural based (HCI) (human hepatocytes): -VE
In vivo DILI ([1]; in vivo): +VE

N#CC(C#N)=NNc1ccc(OC(F)(F)F)cc1 [fccp]
Structural based (HCI) (human hepatocytes; In vitro Assay, ref Xu 2008): +VE
In vivo DILI ([1]; ref O'Brien 2006): +VE
In vivo DILI ([1]; ref Xu 2008): +VE

C[C@]12C=CC(=O)C=C1CC[C@@H]1[C@@H]2C(=O)C[C@@]2(C)[C@H]1CC[C@]2(O)C(=O)CO [prednisone]
Structural based (HCI) (human hepatocytes; In vitro Assay, ref Xu 2008): -VE

C#C[C@]1(O)CC[C@H]2[C@@H]3CCC4=Cc5oncc5C[C@]4(C)[C@H]3CC[C@@]21C [danazol]
Structural based (HCI) (human hepatocytes): -VE

C[C@@H](CO)NC(=O)[C@@H]1C=C2c3cccc4[nH]cc(c34)C[C@H]2N(C)C1 [ergonovine maleate]
Structural based (HCI) (human hepatocytes; In vitro Assay, ref Xu 2008): -VE
In vivo DILI ([1]; ref Xu 2008): -VE

Nc1ccc(C(=O)O)cc1 [aminobenzoate potassium]
Structural based (HCI) (human hepatocytes; In vitro Assay, ref Xu 2008): -VE

CN1CCCCC1CCN1c2ccccc2Sc2ccc([S+](C)[O-])cc21 (stereo not shown) [mesoridazine besylate]
Structural based (HCI), In vitro Assay (human hepatocytes; [2]): -VE
In vivo DILI [1, 3]: +VE

COC(=O)Nc1nc2ccc(C(=O)c3ccccc3)cc2[nH]1 [mebendazole]
Structural based (HCI) (human hepatocytes; In vitro Assay, ref Xu 2008): +VE

CCCOc1ccc2[nH]c(NC(=O)OC)nc2c1 [oxybendazole]
Structural based (HCI), In vitro Assay (human hepatocytes; [2]): -VE
In vivo DILI [1, 3]: +VE

Nc1nc2ncc(CNc3ccc(C(=O)N[C@@H](CCC(=O)O)C(=O)O)cc3)nc2c(=O)[nH]1 [folate]
Structural based (HCI) (human hepatocytes; In vitro Assay, ref Xu 2008): -VE

Nc1ncnc2c1ncn2[C@@H]1O[C@H](CO)[C@@H](O)[C@@H]1O [vidarabine]
Structural based (HCI) (human hepatocytes; In vitro Assay, ref Xu 2008): -VE

NC1CCN(c2c(F)cc3c(=O)c(C(=O)O)cn(C4CC4)c3c2Cl)C1 (stereo not shown) [clinafloxacin]
Structural based (HCI) (human hepatocytes; In vitro Assay, ref Xu 2008): -VE
In vivo DILI ([1]; ref Xu 2008): -VE

N[C@H]1C(O)O[C@H](CO)[C@H](O)[C@@H]1O (stereo partly drawn) [d-galactosamine]
Structural based (HCI) (human hepatocytes): -VE
In vivo DILI ([1]; in vivo): +VE

COc1ccc(OC)c(C(O)C(C)N)c1 (stereo not shown) [methoxamine]
Structural based (HCI), In vitro Assay (human hepatocytes; [2]): -VE
In vivo DILI [1, 3]: -VE

NC[C@@H]1O[C@H](O[C@H]2[C@@H](O)[C@H](O[C@@H]3[C@@H](O)[C@H](N)C[C@H](N)[C@H]3O[C@H]3O[C@H](CO)[C@@H](O)[C@H](O)[C@H]3N)O[C@@H]2CO)[C@H](N)[C@@H](O)[C@@H]1O [paromomycin]
Structural based (HCI), In vitro Assay (human hepatocytes; [2]): -VE

Nc1ncnc2c1ncn2[C@@H]1O[C@H](CO)[C@@H](O)[C@H]1O [adenosine]
Structural based (HCI) (human hepatocytes; In vitro Assay, ref Xu 2008): -VE

CC(NC(C)(C)C)C(=O)c1cccc(Cl)c1 (stereo not shown) [bupropion]
Structural based (HCI) (human hepatocytes; In vitro Assay, ref Xu 2008): -VE
